Earlier results as cited in article PMC12216204 (Scientific Reports, 2025).

Assays:
[1] = test system: orthotopic MDA-MB-231 (TNBC) tumors

proteolytic stability	accumulation in mice bearing orthotopic MDA-MB-231 (TNBC) tumors [1]	Substance	uptake by the non-cancerous cells (non-cancerous cells)
not proteolytically stable		WXEAAYQRFL [compound 18]	
proteolytically stable	accumulated primarily at the tumor site	WXEAAYQkFL (head to tail) [cy18-4]	minimal uptake
